Experimental data as given in PMC9062515, “Identification of the Biosynthetic Pathway of Glycine Betaine That Is Responsible for Salinity Tolerance in Halophilic Thioalkalivibrio versutus D301” (Frontiers in Microbiology, 2022).

Experiments:
TvSDMT = target: T1, TvSDMT (Thioalkalivibrio versutus, UniProt A0A0G3G397); assay: methyltransferase assay, HPLC of product; format: biochemical; conditions: 10 mM SAM, MgCl2, pH 7.5, 37 °C
T1 construct: gene TVD_00880; His-tagged, pET-28a(+), E. coli BL21(DE3), Ni Sepharose; calculated 32 kDa
T1 sequence (A0A0G3G397 1-282): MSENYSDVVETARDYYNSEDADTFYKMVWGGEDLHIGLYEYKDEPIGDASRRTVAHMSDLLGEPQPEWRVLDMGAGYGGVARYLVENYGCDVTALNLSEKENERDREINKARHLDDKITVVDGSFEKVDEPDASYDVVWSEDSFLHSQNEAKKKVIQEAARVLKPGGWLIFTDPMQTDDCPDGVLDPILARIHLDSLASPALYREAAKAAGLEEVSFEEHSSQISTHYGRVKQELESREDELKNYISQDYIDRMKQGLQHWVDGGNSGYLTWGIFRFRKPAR

TvGMT = target: T2, TvGMT (Thioalkalivibrio versutus, UniProt A0A0G3G560); assay: methyltransferase assay, HPLC of product; format: biochemical; conditions: 250 mM glycine, 10 mM SAM, MgCl2, pH 7.5, 37 °C
T2 construct: gene TVD_00875; His-tagged, pET-28a(+), E. coli BL21(DE3), Ni Sepharose; calculated 32 kDa
T2 sequence (A0A0G3G560 1-272): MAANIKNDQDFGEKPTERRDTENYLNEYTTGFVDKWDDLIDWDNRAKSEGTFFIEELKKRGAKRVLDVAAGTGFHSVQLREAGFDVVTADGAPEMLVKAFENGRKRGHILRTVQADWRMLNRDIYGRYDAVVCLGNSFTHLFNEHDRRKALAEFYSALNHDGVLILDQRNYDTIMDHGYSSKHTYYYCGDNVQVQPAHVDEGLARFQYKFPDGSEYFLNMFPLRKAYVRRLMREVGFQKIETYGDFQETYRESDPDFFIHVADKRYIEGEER

CN(C)CC(=O)O [dimethylglycine]
methyltransferase assay, HPLC of product (TvSDMT; 50 mM dimethylglycine): exhibited activities on both sarcosine and dimethylglycine, showing a higher specific activity toward dimethylglycine

NCC(=O)O [glycine]
methyltransferase assay, HPLC of product (TvGMT): The purified TVD_RS00875 converted glycine to sarcosine with a relatively high specific activity

CNCC(=O)O [sarcosine]
methyltransferase assay, HPLC of product (TvSDMT; 60 mM sarcosine): TvSDMT, exhibited activities on both sarcosine and dimethylglycine
